Data taken from US4940705A, “N-substituted derivatives of 1-desoxynojirimycin and 1-desoxymannonojirimycin and pharmaceutical use” (Bayer Aktiengesellschaft, priority 1987, dated 1990).
≈ marks a conversion by molar mass, not a printed value.

Columns and labels:
Cytotoxicity (MCC) = format: cell-based; conditions: sheep, sheep fibroblast cells; MCC denotes cytotoxicity; Table 1
Experimental: (§1) The Visna virus test was carried out by the method of O. Narayan et al., Journal of Infectious Diseases 135, 5, 1977, 800-806. For this, the compounds according to the invention were diluted to non-cytotoxic concentrations in culture medium in 96-well microtiter plates. Subsequently, sheep fibroblast cells (5×10^4 cells per well) in production medium were added to each well. Each well then contained 50 μl of a Visna virus solution having a titre of about 2.5×10^4TCID50 (TCID=tissue culture infectious dose). This virus dose corresponds to an MOI (multiplicity of infection) of about 0.05.
(§2) Herein, MCC denotes cytotoxicity and MIC denotes the minimum concentration at which an inhibition of virus multiplication was still observed.

Visna virus = Visna virus test: inhibition of virus-induced cytopathic effect / virus multiplication in infected cell cultures; format: cell-based; conditions: Visna-maedi virus, 168 h, sheep fibroblast cells, 7 days at 37° C., Table 1, read-out: 2 MIC (minimum concentration at which an inhibition of virus multiplication was still observed)
Experimental: In cell cultures which are infected with Visna virus, pronounced virus-induced, cytopathic effects appear 5 to 10 days after infection. By treatment of the infected cell cultures with the compounds according to the invention, the appearance of these cytopathic effects could be prevented.
as §1
The infected and treated cells and the controlled cells were incubated for 7 days at 37° C. and 5% CO2.
On appearance of the virus-induced cytopathogenic effect in the untreated virus control, the cultures were fixed using formalin and subsequently stained with a Giemsa solution.
as §2

In the case of `O=C(CCN1C[C@H](O)[C@@H](O)[C@H](O)[C@H]1CO)NCc1ccc(C(F)(F)F)cc1` [Example 89, N-(4-Trifluoromethylbenzyl)-3-(1,5-didesoxy-1,5-imino-D-glucit-N-yl)propionamide], the MCC (Cytotoxicity (MCC)) is reported as 1000 µg/mL and the MIC (Visna virus) is reported as 500 µg/mL (≈ 1270 µM).

In the case of `O=C(CCN1C[C@@H](O)[C@@H](O)[C@H](O)[C@H]1CO)Nc1ccc(OC(F)(F)C(F)Cl)cc1` (stereo partly drawn) [Example 53, N-[4-(2-Chloro-1,1,2-trifluoroethoxy)phenyl]-3-(1,5-didesoxy-1,5-imino-D-mannit-N-yl)propionamide], the MCC (Cytotoxicity (MCC)) is reported as 500 µg/mL and the MIC (Visna virus) is reported as 250 µg/mL (≈ 565 µM).

With `C[C@H](NC(=O)CCN1C[C@H](O)[C@@H](O)[C@H](O)[C@H]1CO)c1ccccc1` [Example 102, N-[(1S)-1-Phenethyl]-3-(1,5-didesoxy-1,5-imino-D-glucit-N-yl)propionamide] the MCC (Cytotoxicity (MCC)) was over 1000 µg/mL and the MIC (Visna virus) was 125 µg/mL (≈ 369 µM).

`O=C(CCN1C[C@@H](O)[C@@H](O)[C@H](O)[C@H]1CO)Nc1ccc2c(c1)OCO2` [Example 72, N-(3,4-Methylenedioxyphenyl)-3-(1,5-didesoxy-1,5-imino-N-yl)propionamide] gave an MCC (Cytotoxicity (MCC)) of over 1000 µg/mL and an MIC (Visna virus) of 500 µg/mL (≈ 1410 µM).

For `O=C(CCN1C[C@H](O)[C@@H](O)[C@H](O)[C@H]1CO)Nc1ccccc1` [Example 34, N-Phenyl-3-(1,5-didesoxy-1,5-imino-D-glucit-N-yl)propionamide], the MCC (Cytotoxicity (MCC)) was over 1000 µg/mL and the MIC (Visna virus) was 15 µg/mL (≈ 48.3 µM).

In the case of `O=C(CCN1C[C@H](O)[C@@H](O)[C@H](O)[C@H]1CO)Nc1ccc(F)cc1F` [Example 18, N-(2,4-Difluorophenyl)-3-(1,5-didesoxy-1,5-imino-D-glucit-N-yl)propionamide], the MCC (Cytotoxicity (MCC)) is reported as over 1000 µg/mL and the MIC (Visna virus) is reported as 500 µg/mL (≈ 1440 µM).

In the case of `O=C(CCN1C[C@H](O)[C@@H](O)[C@H](O)[C@H]1CO)Nc1ccc(F)c(F)c1` [Example 19, N-(3,4-Difluorophenyl)-3-(1,5-didesoxy-1,5-imino-D-glucit-N-yl)propionamide], the MCC (Cytotoxicity (MCC)) is reported as over 1000 µg/mL and the MIC (Visna virus) is reported as 125 µg/mL (≈ 361 µM).

`COc1cc(NC(=O)CCN2C[C@@H](O)[C@@H](O)[C@H](O)[C@H]2CO)cc(OC)c1` [Example 66, N-(3,5-Dimethoxyphenyl)-3-(1,5-didesoxy-1,5-imino-D-mannit-N-yl)propionamide] gave an MCC (Cytotoxicity (MCC)) of 1000 µg/mL and an MIC (Visna virus) of 500 µg/mL (≈ 1350 µM).

Work on `CCOc1ccc(NC(=O)CCN2C[C@H](O)[C@@H](O)[C@H](O)[C@H]2CO)cc1` [Example 35, N-(4-Ethoxyphenyl)-3-(1,5-didesoxy-1,5-imino-D-glucit-N-yl)propionamide] yielded an MCC (Cytotoxicity (MCC)) of 250 µg/mL and an MIC (Visna virus) of 15 µg/mL (≈ 42.3 µM).

Molecule `O=C(CCN1C[C@H](O)[C@@H](O)[C@H](O)[C@H]1CO)NCC(=O)c1ccccc1` [Example 90] has an MCC (Cytotoxicity (MCC)) of 1000 µg/mL and an MIC (Visna virus) of 250 µg/mL (≈ 709 µM).

With `O=C(O)CCCN1C[C@H](O)[C@@H](O)[C@H](O)[C@H]1CO` [Example 107, 4-(1,5-Didesoxy-1,5-imino-D-glucit-N-yl)butanoic acid] the MCC (Cytotoxicity (MCC)) was over 1000 µg/mL and the MIC (Visna virus) was 500 µg/mL (≈ 2010 µM).

For `O=C(CCN1C[C@H](O)[C@@H](O)[C@H](O)[C@H]1CO)N1CCSCC1` [Example 100, 3-(1,5-Didesoxy-1,5-imino-D-glucit-N-yl)propionyl-1-thiomorpholide], the MCC (Cytotoxicity (MCC)) was over 1000 µg/mL and the MIC (Visna virus) was 500 µg/mL (≈ 1560 µM).

Molecule `CC(C)c1ccccc1NC(=O)CCN1C[C@@H](O)[C@@H](O)[C@H](O)[C@H]1CO` [Example 55, N-(2-Isopropylphenyl)-3-(1,5-didesoxy-1,5-imino-D-mannit-N-yl)propionamide] has an MCC (Cytotoxicity (MCC)) of 1000 µg/mL and an MIC (Visna virus) of 250 µg/mL (≈ 709 µM).

With `CC(C)(C)c1ccc(NC(=O)CCN2C[C@H](O)[C@@H](O)[C@H](O)[C@H]2CO)cc1` [Example 7, N-(4-Tert.-butylphenyl)-3-(1,5-didesoxy-1,5-imino-D-glucit-N-yl)propionamid] the MCC (Cytotoxicity (MCC)) was over 1000 µg/mL and the MIC (Visna virus) was 500 µg/mL (≈ 1360 µM).

With `C[C@@H](NC(=O)CCN1C[C@H](O)[C@@H](O)[C@H](O)[C@H]1CO)c1ccccc1` [Example 103] the MCC (Cytotoxicity (MCC)) was over 1000 µg/mL and the MIC (Visna virus) was 125 µg/mL (≈ 369 µM).

Molecule `O=C(CCN1C[C@H](O)[C@@H](O)[C@H](O)[C@H]1CO)N1CCN(c2ccc(F)cc2)CC1` [Example 41, 3-(1,5-Didesoxy-1,5-imino-D-glucit-N-yl)propionyl-1-(4-p-fluorophenyl)piperazine] has an MCC (Cytotoxicity (MCC)) of 1000 µg/mL and an MIC (Visna virus) of 125 µg/mL (≈ 315 µM).

For `CCN(CC)CCOc1ccc(NC(=O)CCN2C[C@@H](O)[C@@H](O)[C@H](O)[C@H]2CO)cc1` [Example 50, N-[4-(2-N,N-Diethylaminoethoxy)phenyl]-3-(1,5-didesoxy-1,5-imino-D-mannit-N-yl)propionamide], the MCC (Cytotoxicity (MCC)) was 1000 µg/mL and the MIC (Visna virus) was 250 µg/mL (≈ 588 µM).

`Cc1ccc(N2CCN(C(=O)CCN3C[C@H](O)[C@@H](O)[C@H](O)[C@H]3CO)CC2)cc1` [Example 87, 3-(1,5-Didesoxy-1,5-imino-D-glucit-N-yl)-propionyl-1-(4-tolyl)piperazine] gave an MCC (Cytotoxicity (MCC)) of over 1000 µg/mL and an MIC (Visna virus) of 250 µg/mL (≈ 635 µM).

In the case of `CC(C)c1ccccc1NC(=O)CCN1C[C@H](O)[C@@H](O)[C@H](O)[C@H]1CO` [Example 14, N-(2-Isopropylphenyl)-3-(1,5-didesoxy-1,5-imino-D-glucit-N-yl)propionamide], the MCC (Cytotoxicity (MCC)) is reported as over 1000 µg/mL and the MIC (Visna virus) is reported as 125 µg/mL (≈ 355 µM).

Work on `CC(C)c1ccc(NC(=O)CCN2C[C@@H](O)[C@@H](O)[C@H](O)[C@H]2CO)cc1` [Example 54, N-(4-Isopropylphenyl)-3-(1,5-didesoxy-1,5-imino-D-mannit-N-yl)propionamide] yielded an MCC (Cytotoxicity (MCC)) of 1000 µg/mL and an MIC (Visna virus) of 250 µg/mL (≈ 709 µM).

Molecule `O=C(CCN1C[C@H](O)[C@@H](O)[C@H](O)[C@H]1CO)Nc1ccc(C(F)(F)F)cc1` [Example 11, N-(4-Trifluoromethylphenyl)-3-(1,5-didesoxy-1,5-imino-D-glucit-N-yl)propionamide] has an MCC (Cytotoxicity (MCC)) of over 1000 µg/mL and an MIC (Visna virus) of 500 µg/mL (≈ 1320 µM).

With `O=C(CCN1C[C@H](O)[C@@H](O)[C@H](O)[C@H]1CO)Nc1ccc(OCCO)cc1` [Example 40, N-[4-(2-Hydroxyethoxy)phenyl]-3-(1,5-didesoxy-1,5-imino-D-glucit-N-yl)propionamide] the MCC (Cytotoxicity (MCC)) was over 1000 µg/mL and the MIC (Visna virus) was 15 µg/mL (≈ 40.5 µM).

In the case of `COc1cc(NC(=O)CCN2C[C@H](O)[C@@H](O)[C@H](O)[C@H]2CO)cc(OC)c1` [Example 25, N-(3,5-Dimethoxyphenyl)-3-(1,5-didesoxy-1,5-imino-D-glucit-N-yl)propionamide], the MCC (Cytotoxicity (MCC)) is reported as over 1000 µg/mL and the MIC (Visna virus) is reported as 250 µg/mL (≈ 675 µM).

`O=C(CCN1C[C@@H](O)[C@@H](O)[C@H](O)[C@H]1CO)N1CCN(c2ccc(F)cc2)CC1` [Example 82, 3-(1,5-Didesoxy-1,5-imino-D-mannit-N-yl)-propionyl-1-(4-p-fluorophenyl)piperazine] showed an MCC (Cytotoxicity (MCC)) of over 1000 µg/mL and an MIC (Visna virus) of 500 µg/mL (≈ 1260 µM).

Work on `O=C(CCN1C[C@H](O)[C@@H](O)[C@H](O)[C@H]1CO)N1CCN(c2ccccc2[N+](=O)[O-])CC1` [Example 94, 3-(1,5-Didesoxy-1,5-imino-D-glucit-N-yl)propionyl-1-(4-2-nitrophenyl)piperazine] yielded an MCC (Cytotoxicity (MCC)) of over 1000 µg/mL and an MIC (Visna virus) of 500 µg/mL (≈ 1180 µM).

For `O=C(CCN1C[C@H](O)[C@@H](O)[C@H](O)[C@H]1CO)NCc1cccs1` [Example 101, N-[(Thiophen-2-yl)-methyl]-3-(1,5-didesoxy-1,5-imino-D-glucit-N-yl)propionamide], the MCC (Cytotoxicity (MCC)) was 1000 µg/mL and the MIC (Visna virus) was 125 µg/mL (≈ 378 µM).

`O=C(CCN1C[C@H](O)[C@@H](O)[C@H](O)[C@H]1CO)N1CCN(c2ccccc2F)CC1` [Example 92, 3-(1,5-Didesoxy-1,5-imino-D-glucit-N-yl)propionyl-1-(4-2-fluorophenyl)piperazine] gave an MCC (Cytotoxicity (MCC)) of over 1000 µg/mL and an MIC (Visna virus) of 250 µg/mL (≈ 629 µM).

Molecule `O=C(CCN1C[C@H](O)[C@@H](O)[C@H](O)[C@H]1CO)Nc1ccc(OC(F)(F)C(F)Cl)cc1` (stereo partly drawn) [Example 12, N-[4-(2-Chloro-1,1,2-trifluoroethoxy)phenyl]-3-(1,5-didesoxy-1,5-imino-D-glucit-N-yl)propionamide] has an MCC (Cytotoxicity (MCC)) of 1000 µg/mL and an MIC (Visna virus) of 250 µg/mL (≈ 565 µM).

Molecule `O=C(CCN1C[C@H](O)[C@@H](O)[C@H](O)[C@H]1CO)Nc1ccc(OCc2ccccc2)cc1` [Example 4, N-(4-Benzyloxyphenyl)-3-(1,5-didesoxy-1,5-imino-D-glucit-N-yl)propionamide] has an MCC (Cytotoxicity (MCC)) of over 1000 µg/mL and an MIC (Visna virus) of 125 µg/mL (≈ 300 µM).

In the case of `N#Cc1cccc(NC(=O)CCN2C[C@H](O)[C@@H](O)[C@H](O)[C@H]2CO)c1` [Example 27, N-(3-Cyanophenyl)-3-(1,5-didesoxy-1,5-imino-D-glucit-N-yl)propionamide], the MCC (Cytotoxicity (MCC)) is reported as over 1000 µg/mL and the MIC (Visna virus) is reported as 250 µg/mL (≈ 745 µM).

Work on `O=C(CCN1C[C@H](O)[C@@H](O)[C@H](O)[C@H]1CO)Nc1ccc2c(c1)OCO2` [Example 31, N-(3,4-Methylenedioxyphenyl)-3-(1,5-didesoxy-1,5-imino-D-glucit-N-yl)propionamide] yielded an MCC (Cytotoxicity (MCC)) of over 1000 µg/mL and an MIC (Visna virus) of 125 µg/mL (≈ 353 µM).

In the case of `Cc1cccc(N2CCN(C(=O)CCN3C[C@H](O)[C@@H](O)[C@H](O)[C@H]3CO)CC2)c1` [Example 93, 3-(1,5-Didesoxy-1,5-imino-D-glucit-N-yl)propionyl-1-(3-methylphenyl)piperazine], the MCC (Cytotoxicity (MCC)) is reported as over 1000 µg/mL and the MIC (Visna virus) is reported as 500 µg/mL (≈ 1270 µM).

In the case of `COc1cc(NC(=O)CCN2C[C@H](O)[C@@H](O)[C@H](O)[C@H]2CO)cc(OC)c1OC` [Example 23, N-(3,4,5-Trimethoxyphenyl)-3-(1,5-didesoxy-1,5-imino-D-glucit-N-yl)propionamide], the MCC (Cytotoxicity (MCC)) is reported as 150 µg/mL and the MIC (Visna virus) is reported as 75 µg/mL (≈ 187 µM).

`O=C(CCN1C[C@H](O)[C@@H](O)[C@H](O)[C@H]1CO)Nc1ccccc1F` [Example 16, N-(2-Fluorophenyl)-3-(1,5-didesoxy-1,5-imino-D-glucit-N-yl)propionamide] gave an MCC (Cytotoxicity (MCC)) of over 1000 µg/mL and an MIC (Visna virus) of 250 µg/mL (≈ 761 µM).
